We go through 18 compounds from PMC10895668, “Lead Optimization of the 5-Phenylpyrazolopyrimidinone NPD-2975 toward Compounds with Improved Antitrypanosomal Efficacy” (Journal of Medicinal Chemistry, 2024).

In data set [1] the test system is T. b. brucei. Put plainly: Trypanosoma susceptibility assay (resazurin viability). Format: cell-based. Conditions: for decrease of antitrypanosomal activity compared with 2: T. b. brucei, versus compound 2; for antitrypanosomal activity (in words): T. brucei in vitro; for potency lower compared to 31a: T. brucei, versus compound 31a. The procedure: (§1) The antiparasitic assays were carried out exactly as described in Blaazer et al.([39]) Metabolic stability, pharmacokinetics, acute mouse infection model results were collected as described previously.[21] All animal experiments were conducted in compliance with institutional guidelines and following approval by the Ethical Committee of the University of Antwerp, Belgium [UA-ECD 2014–96]. Female Swiss mice (15–20 g), were purchased from Janvier (Le Genest Saint Isle, France). […] Animals were treated PO b.i.d. for 5 days at 25 and 50 mg/kg 31c. For the SL-RNA qPCR experiments blood was collected sublingually and subjected to erythrocyte lysis before extracting RNA with the QIAamp RNA Blood Mini kit (Qiagen). […] Small pieces of fat, brain, and spleen tissue were excised and immediately transferred to RNA later (Qiagen) and incubated overnight at 4 °C. RNA extraction was performed as instructed in the RNeasy Mini Plus Kit manual (Qiagen). The one-step SensiFAST SYBR Hi-Rox PCR kit (Bioline USA Inc., via Gentaur Belgium BVBA, Kampenhout, Belgium) was used for the PCR with the following forward and reverse primers, respectively 5′-[…]-3′ and 5′-[…]-3′. An initial activation step of 10 min at 45 °C and 10 min at 95 °C was used, followed by the amplification step for 40 cycles (15 s at 95 °C, 15 s 50 °C and 15 s at 60 °C). At last, the melting curves were generated with an increment of 0.3 °C (15 s at 95 °C 1 min at 45 °C and 15 s at 95 °C). The PCR was run on the Step One Plus real-time PCR system (Applied Biosystems, California, USA). An additional qPCR was performed with the mouse housekeeping gene Eef2 to confirm successful RNA extraction.
In vitro experiments were carried out with the bloodstream form of the T. b. brucei Squib strain (suramin-sensitive). Parasites were routinely cultured in T25 culture flasks containing 10 mL of HMI-9 medium (Invitrogen) supplemented with 10% heat-inactivated fetal bovine serum (Life Technologies) and 2.5 μg/mL Geneticin (Life Technologies). MRC-5SV2 cells were cultured in MEM + Earl’s salts-medium, supplemented with 2 mM L-glutamine, 16.5 mM NaHCO3, and 5% inactivated fetal calf serum. All cultures and assays were conducted at 37 °C under an atmosphere of 5% CO2.
Parasites were counted in a KOVA counting chamber and diluted to 1.5 × 10^4 parasites/well of a 96-well plate (200 μL total volume), upon which the prediluted test compounds were added. Drug exposure covered a 72 h period without renewal of the culture medium. After 3 days of incubation, parasite growth was assessed fluorimetrically after addition of 50 μL of resazurin per well. After 6 h (T. b. rhodesiense) or 24 h (T. b. brucei) at 37 °C, fluorescence is measured (λex 550 nm, λem 590 nm). Parasite viability was assessed using the resazurin viability assay, and drug activity was calculated as percentage viability reduction compared to nontreated controls.
A general note: Alamar Blue is a resazurin reagent that responds to reducing activity.

Data set [2] has as its system MRC-5 cells. Briefly: MRC-5SV2 cytotoxicity assay. It is filed as cell-based. To be noted: Homo sapiens, MRC5, 72 h, read-out: pIC50 MRC-5 (converted). The procedure: The synthesized analogues were tested against T. b. brucei, and inhibition of MRC-5 (human lung fibroblasts MRC-5SV40) cell proliferation was included as cytotoxicity control. […] Analogue 17 with an amino group instead of the carbonyl group was prepared to improve solubility for further modification. […] In vitro experiments were carried out with the bloodstream form of the T. b. brucei Squib strain (suramin-sensitive). […] All cultures and assays were conducted at 37 °C under an atmosphere of 5% CO2. […] Cell growth is compared to untreated-control wells (100% cell growth) and medium-control wells (0% cell growth). […] After 4 h at 37 °C, fluorescence is measured (λex 550 nm, λem 590 nm). The results are expressed as % reduction in cell growth/viability compared to control wells and an IC50 and an IC90 (50 and 90% inhibitory concentrations) are determined.

Data set [3] has as its system MRC-5 cells. Conditions: Figure 1; previously reported series ref 21; cited from earlier work.
The subject of data set [4] is T. b. brucei. Conditions: 10 mg/kg IP s.i.d. for 5 days, positive control, n = 3. The method, then: as §1
Mice were allocated to groups of three and were infected by IP injection of 10^4T. brucei Squib 427 trypomastigotes. […] Suramin was included as a reference for T. brucei and injected IP s.i.d. for 5 days at 10 mg/kg. A PEG400 vehicle control group was also included. […] The first treatment was given 30 min prior to the artificial infection. Drug efficacy was evaluated by microscopic determination of the parasitemia in a blood drop collected from the tail vein at several time points until 63 days postinfection (dpi). […] An SL-RNA qPCR assay was performed in all surviving animals to confirm parasitological cure. For the SL-RNA qPCR, peripheral blood was subjected to erythrocyte lysis before extracting RNA with the QIAamp RNA Blood Mini kit (Qiagen). […] Small pieces of fat, brain, and spleen tissues were excised and immediately transferred to RNA later (Qiagen) and incubated overnight at 4 °C. RNA extraction was performed as instructed in the RNeasy Mini Plus Kit manual (Qiagen). […]

[5] abbreviates: cytotoxicity, 3 days incubation, mean ± SD, n ≥ 2.
[6] abbreviates: Trypanosoma brucei, 72 h, T. b. brucei Squib bloodstream form, 72 h exposure, mean ± SD, n ≥ 2, read-out: pIC50 T. brucei (converted).
Setting [7] is: T. b. brucei Squib bloodstream form, 72 h exposure, mean ± SD, n ≥ 2.

Counter-ions that a name gives are not always drawn. Like-named read-outs stand apart in the source and are kept apart here.

As for “5-(4-Fluorophenyl)-3-isopropyl-1-(4-methoxyphenethyl)-1,6-dihydro-7H-pyrazolo[4,3-d]pyrimidin-7-one [21e]”, in the data set with T. b. brucei [1] (read-out: IC50 against T. brucei), the IC50 was 3200 nM.

`CCn1nc(C(C)C)c2nc(-c3ccc(F)cc3)[nH]c(=O)c21` [21a, 1-Ethyl-5-(4-fluorophenyl)-3-isopropyl-1,6-dihydro-7H-pyrazolo[4,3-d]pyrimidin-7-one]: the IC50 was more than 63.1 µM in the data set on MRC-5 cells [2] (setting [5]) and 251 nM in the data set with T. b. brucei [1] (setting [6]).

Consider `CCCn1nc(C(C)C)c2nc(-c3ccc(F)cc3)[nH]c(=O)c21` [21b, 5-(4-Fluorophenyl)-3-isopropyl-1-propyl-1,6-dihydro-7H-pyrazolo[4,3-d]pyrimidin-7-one], for which the IC50 was more than 63.1 µM in the data set on MRC-5 cells [2] (setting [5]) and 158 nM in the data set on T. b. brucei [1] (setting [6]).

On to `CC(C)c1nn(C(C)C)c2c(=O)[nH]c(-c3ccc(F)cc3)nc12` [21c, 5-(4-Fluorophenyl)-1,3-diisopropyl-1,6-dihydro-7H-pyrazolo[4,3-d]pyrimidin-7-one], for which the IC50 with MRC-5 cells [2] (setting [5]) was more than 63.1 µM; in the data set with T. b. brucei [1] (setting [6]) it was 6310 nM. Moreover, the “decrease of antitrypanosomal activity compared with 2” value (from here on “decrease of antitrypanosomal activity”) in the data set on T. b. brucei [1] is approximately 100 fold.

On to `COCCn1nc(C(C)C)c2nc(-c3ccc(F)cc3)[nH]c(=O)c21` [21d, 5-(4-Fluorophenyl)-3-isopropyl-1-(2-methoxyethyl)-1,6-dihydro-7H-pyrazolo[4,3-d]pyrimidin-7-one], for which the IC50 in the data set on MRC-5 cells [2] (setting [5]) is more than 63.1 µM; in the data set on T. b. brucei [1] (setting [6]) it was more than 63100 nM. Moreover, the “antitrypanosomal activity (in words)” value in the data set on T. b. brucei [1] is “no antitrypanosomal activity at all”.

For `CC(C)c1nn(CCC(N)=O)c2c(=O)[nH]c(-c3ccc(F)cc3)nc12` [21f, 3-(5-(4-Fluorophenyl)-3-isopropyl-7-oxo-6,7-dihydro-1H-pyrazolo[4,3-d]pyrimidin-1-yl)propanamide], the values for the IC50 in the data set with MRC-5 cells [2] (setting [5]) and in the data set on T. b. brucei [1] (setting [6]) were more than 63.1 µM and more than 63100 nM, respectively. In addition, in the data set on T. b. brucei [1], the “antitrypanosomal activity (in words)” value is on record as “no antitrypanosomal activity”.

As to `O=c1[nH]c(-c2ccc(F)cc2)nc2c(C3CCCCC3)n[nH]c12` [31b, 3-Cyclohexyl-5-(4-fluorophenyl)-1,6-dihydro-7H-pyrazolo[4,3-d]pyrimidin-7-one], in the data set with MRC-5 cells [2] (setting [5]), the IC50 is more than 63.1 µM. The “potency lower compared to 31a” value in the data set on T. b. brucei [1] came out at 4 fold.

As for `CCc1n[nH]c2c(=O)[nH]c(-c3ccc(F)cc3)nc12` [31d, 3-Ethyl-5-(4-fluorophenyl)-1,6-dihydro-7H-pyrazolo[4,3-d]pyrimidin-7-one], the IC50 in the data set on MRC-5 cells [2] (setting [5]) is more than 63.1 µM; in the data set with T. b. brucei [1] (setting [6]) it was 398 nM.

For `Cc1n[nH]c2c(=O)[nH]c(-c3ccc(F)cc3)nc12` [31e, 5-(4-Fluorophenyl)-3-methyl-1,6-dihydro-7H-pyrazolo[4,3-d]pyrimidin-7-one], the IC50 in the data set with MRC-5 cells [2] (setting [5]) was more than 63.1 µM; in the data set with T. b. brucei [1] (setting [6]), 25100 nM.

Turning to `O=c1[nH]c(-c2ccc(F)cc2)nc2cn[nH]c12` [31f, 5-(4-Fluorophenyl)-1,6-dihydro-7H-pyrazolo[4,3-d]pyrimidin-7-one Formate], the IC50 with MRC-5 cells [2] is more than 63.1 µM; with T. b. brucei [1] (Trypanosoma brucei, 72 h, read-out: pIC50 T. brucei (converted)), more than 63100 nM.

As to `CC(C)c1n[nH]c2c(=O)[nH]c(Cc3ccccc3)nc12` [compound 1, reference compound], the “MRC-5 pIC50” value in the data set with MRC-5 cells [3] is reported as less than 4.2.

Turning to `CC(C)c1[nH]nc2c(=O)n(C)c(-c3ccc(F)cc3)nc12` [compound 7, 5-(4-Fluorophenyl)-3-isopropyl-6-methyl-2,6-dihydro-7H-pyrazolo[4,3-d]pyrimidin-7-one], the IC50 in the data set with MRC-5 cells [2] (setting [5]) was more than 63.1 µM; in the data set with T. b. brucei [1] (setting [6]) it was more than 10000 nM. Besides, the “decrease of antitrypanosomal activity” value in the data set with T. b. brucei [1] was more than 100 fold.

As for `CC(C)c1nn(C)c2c(=O)[nH]c(-c3ccc(F)cc3)nc12` [compound 11, 5-(4-Fluorophenyl)-3-isopropyl-1-methyl-1,6-dihydro-7H-pyrazolo[4,3-d]pyrimidin-7-one], the IC50 is more than 63.1 µM with MRC-5 cells [2] (setting [5]) and less than 100 nM with T. b. brucei [1] (setting [6]). Moreover, the “pIC50 T. brucei” value in the data set with T. b. brucei [1] (setting [7]) is recorded as 7.1 ± 0.1.

`CC(C)c1c2nc(-c3ccc(F)cc3)[nH]c(=O)c2nn1C` [compound 15, 5-(4-Fluorophenyl)-3-isopropyl-2-methyl-2,6-dihydro-7H-pyrazolo[4,3-d]pyrimidin-7-one]: the IC50 in the data set with MRC-5 cells [2] (setting [5]) is more than 63.1 µM; in the data set with T. b. brucei [1] (setting [6]), 1580 nM. Besides, in the data set with T. b. brucei [1], the “decrease of antitrypanosomal activity” value was 20 fold.

`CC(C)c1n[nH]c2c(=N)[nH]c(-c3ccc(F)cc3)nc12` [compound 17, 5-(4-Fluorophenyl)-3-isopropyl-1,6-dihydro-7H-pyrazolo[4,3-d]pyrimidin-7-imine]: the values for the IC50 with MRC-5 cells [2] (setting [5]) and in the data set on T. b. brucei [1] (setting [6]) were 25.1 µM and more than 10000 nM, respectively. Moreover, in the data set with T. b. brucei [1], the “decrease of antitrypanosomal activity” value was more than 100 fold.

On to `CC(C)c1nn(CCO)c2c(=O)[nH]c(-c3ccc(F)cc3)nc12` [compound 22, 5-(4-Fluorophenyl)-1-(2-hydroxyethyl)-3-isopropyl-1,6-dihydro-7H-pyrazolo[4,3-d]pyrimidin-7-one], for which the IC50 in the data set with MRC-5 cells [2] (setting [5]) is more than 63.1 µM; with T. b. brucei [1] (setting [6]) it was 631 nM; in the data set with T. b. brucei [1] (Trypanosoma brucei, read-out: IC50 against T. brucei), 800 nM.

Turning to `O=c1[nH]c(-c2ccc(F)cc2)nc2c(-c3ccccc3)n[nH]c12` [compound 35, 5-(4-Fluorophenyl)-3-phenyl-1,6-dihydro-7H-pyrazolo[4,3-d]pyrimidin-7-one], the IC50 is more than 63.1 µM with MRC-5 cells [2] (setting [5]) and less than 100 nM with T. b. brucei [1] (setting [6]). Besides, the “pIC50 T. brucei” value in the data set on T. b. brucei [1] (setting [7]) stood at 7.3 ± 0.1. Further, in the data set on T. b. brucei [1], the “potency lower compared to 31a” value was determined as 4 fold.

For `Cc1ccc(C(=O)Nc2ccc(S(=O)(=O)O)c3cc(S(=O)(=O)O)cc(S(=O)(=O)O)c23)cc1NC(=O)c1cccc(NC(=O)Nc2cccc(C(=O)Nc3cc(C(=O)Nc4ccc(S(=O)(=O)O)c5cc(S(=O)(=O)O)cc(S(=O)(=O)O)c45)ccc3C)c2)c1` [suramin, reference compound], the survival result with T. b. brucei [4] is given as “survived throughout the 60 days postinfection follow-up period without relapse”.
